From the OligoGym collection come the findings set out here.

After the bases stand the sugars from the 5' end (letter, count) and the backbone: PS all phosphorothioate, else s phosphorothioate and o phosphodiester by linkage. Methylation of C is not given here. e = 2'-O-(2-methoxyethyl) (MOE); k = constrained ethyl (cEt); d = 2'-deoxy (DNA); m = 2'-O-methyl

This data set concerns the target HSD17B13. Particulars: ASO, HepaRG.

Regarding TAGCTATTGTCTTTGA (sugars k3 d10 k3, PS), for the setting “1 µM”, the target mRNA inhibition was 63%. On the same count and under the same terms, with ATTCATAAACATAGGC (sugars k3 d10 k3, PS) the figure was 36%; with GTGCCAAACCAATGTT (sugars k3 d10 k3, PS), 43%; with “TATGUGATTGAGTTCT (sugars k3 d1 m1 d8 k3, PS)”, 21%. In turn, “CTTTTTATAGACTGGG (sugars k3 d9 k3 e1, PS)” came in with a target mRNA inhibition (1 µM) of 44%. The same measure, in the same setting: with TTATTATGAGGATCTG (sugars k3 d10 k3, PS) the figure was 50%; with AGTTAGCAGCTAAAAT (sugars k3 d10 k3, PS), 33%; with CCAAGTAATTACTTCT (sugars k3 d10 k3, PS), 68%.

For the setting “1 µM”, GGCTAAAATGGTCATC (sugars k3 d10 k3, PS) returned a target mRNA inhibition of 75%.

TCTTGATGTAGTGGGA (sugars k3 d10 k3, PS): the target mRNA inhibition (1 µM) worked out at 44%.

Sequence “TCTTAAACCTTCCCTG (sugars k3 d9 k3 e1, PS)” came in with a target mRNA inhibition (1 µM) of 38%. Still for that read-out and setting: with “AGTCTTAAACCTTCCC (sugars kkdddddddddkekek, PS)” the figure was 43%. On the same count and under the same terms, with CAGAGACATGAGGTTT (sugars k3 d10 k3, PS) the figure was 61%; with AGTGCTAAGTAGTAAT (sugars k3 d10 k3, PS), 71%. The same measure, in the same setting: the result for CTAATATTGAGGCACT (sugars k3 d10 k3, PS) reads 51%. Consider GCAATTTACTTTCAGC (sugars k3 d10 k3, PS), for which, for the setting “1 µM”, the target mRNA inhibition was determined as 66%.

In the case of “GTTAUTCTCTTGACAA (sugars k3 d1 m1 d8 k3, PS)”, the target mRNA inhibition (1 µM) was found to be 29%. Still for that read-out and setting: with “CAGGGTGGTAACGGTG (sugars kkdddddddddkekek, PS)” the figure was 49%; with “CTGTGTTAGCTTTAAT (sugars kkdddddddddkekek, PS)”, 47%; with GTTCAGTCCTTGTGTA (sugars k3 d10 k3, PS), 38%. Same read-out and setting: with “GTGTAAGCTGAGAGTT (sugars kkdddddddddkekek, PS)” the figure was 57%.

Where the note is “1 µM”, ATGACATAGACATGTG (sugars k3 d10 k3, PS) gave a target mRNA inhibition of 23%. Same read-out and setting: the result for GTGCAAGATGATGACA (sugars k3 d10 k3, PS) reads 19%; that for TCGCCTAAAGGAGATC (sugars k3 d10 k3, PS), 70%. Still for that read-out and setting: the result for CTGTGACGATGTGGCC (sugars k3 d10 k3, PS) reads 28%; that for “CAGGGTGGTAACGGTG (sugars k3 d9 k3 e1, PS)”, 39%. Turning to “TGTAGTGGGAGTCGGA (sugars k3 d9 k3 e1, PS)”, where the note is “1 µM”, the target mRNA inhibition worked out at 53%.

With “CCAACCAAACTTCCAG (sugars k3 d9 k3 e1, PS)”, the target mRNA inhibition (1 µM) turned out to be 47%. Still for that read-out and setting: the result for “TTCCATCTATCAGACT (sugars k3 d1 m1 d8 k3, PS)” reads 38%; that for ATAATCTTGTGCTTGG (sugars k3 d10 k3, PS), 36%.

For the sequence CTGTCATAAAGGTGGG (sugars k3 d10 k3, PS), the target mRNA inhibition (1 µM) was found to be 59%. As to AATTCTATAGCTAAGT (sugars k3 d10 k3, PS), where the note is “1 µM”, the target mRNA inhibition was found to be 9%. Sequence TGATTTTGACCTTACC (sugars k3 d10 k3, PS) registered a target mRNA inhibition (1 µM) of 11%.

Under “1 µM”, “TAAGAGGCATGAAAGG (sugars kkdddddddddkekek, PS)” came in with a target mRNA inhibition of 54%. For the sequence “GTTAGTATAGTTATCT (sugars kkdddddddddkekek, PS)”, the target mRNA inhibition (1 µM) was found to be 51%. In turn, TTGGACATGAAGATTA (sugars k3 d10 k3, PS) had a target mRNA inhibition (1 µM) of 18%. On the same count and under the same terms, with AAATTCATAAGTAGTC (sugars k3 d10 k3, PS) the figure was 39%; with ATTCCATCTATCAGAC (sugars k3 d10 k3, PS), 7%; with TAGTAATTGCTATAGT (sugars k3 d10 k3, PS), 7%. On the same count and under the same terms, the result for AGACTTTGAGACTCTT (sugars k3 d10 k3, PS) reads 57%. Consider “ACCGTTTTGGGCTAAT (sugars kkdddddddddkekek, PS)”, for which the target mRNA inhibition is 23% (0.02 µM); 24% (0.078 µM); 37% (0.313 µM); 76% (1 µM); 66% (1.25 µM); 78% (5 µM). As for CTTTTAGGGAGGTAGC (sugars k3 d10 k3, PS), the target mRNA inhibition (1 µM) was determined as 62%. The same measure, in the same setting: with “TGATATGTCAATACTC (sugars k3 d10 k1 d1 k1, PS)” the figure was 57%; with GAATGCTACTTGAACA (sugars k3 d10 k3, PS), 44%; with ACATTAGCAAGCTAAG (sugars k3 d10 k3, PS), 52%.

“AAGATACCCAGGTTGC (sugars kkdddddddddkekek, PS)” registered a target mRNA inhibition (1 µM) of 59%. On the same count and under the same terms, the result for AACTGAAGGTCTGAGC (sugars k3 d10 k3, PS) reads 55%. On the same count and under the same terms, with TAATTCTAAACTAGTG (sugars k3 d10 k3, PS) the figure was 11%.

As for CTCAAAGTCAGTATCC (sugars k3 d10 k3, PS), the target mRNA inhibition (1 µM) worked out at 70%. Still for that read-out and setting: with “TTGAATAGCAAGCCAA (sugars kkdddddddddkekek, PS)” the figure was 27%; with “GCTGCTAGTGCCAAAC (sugars kkdddddddddkekek, PS)”, 62%. The same measure, in the same setting: with TGAGTAGTGTAAGCTG (sugars k3 d10 k3, PS) the figure was 62%; with TTAGAATAGTCTTCAG (sugars k3 d10 k3, PS), 52%; with “TAAGATACCCAGGTTG (sugars k3 d1 m1 d8 k3, PS)”, 11%. Still for that read-out and setting: with TGCTGCATTAATGCCA (sugars k3 d10 k3, PS) the figure was 15%; with CCACACTAATGAATCA (sugars k3 d10 k3, PS), 43%; with “TGATATTCTGTGGCAT (sugars kkdddddddddkekek, PS)”, 46%. For CTTGATGTAGTGGGAG (sugars k3 d10 k3, PS), the target mRNA inhibition amounted to 0% (0.02 µM); 4% (0.078 µM); 21% (0.313 µM); 83% (1 µM); 62% (1.25 µM); 80% (5 µM). As for TAAACTAGTGGTAATG (sugars k3 d10 k3, PS), the target mRNA inhibition (1 µM) worked out at 14%. Still for that read-out and setting: with “TAAAATAGAGTCGGTC (sugars k3 d1 m1 d8 k3, PS)” the figure was 52%; with “TCTTATGTAATAGCCA (sugars k3 d1 m1 d8 k3, PS)”, 64%. The same measure, in the same setting: the result for “ATCAAGACATTCTAGC (sugars kkdddddddddkekek, PS)” reads 30%; that for AAATTTGCTGGAACTG (sugars k3 d10 k3, PS), 15%; that for “AATCCCAACCAAACTT (sugars kkdddddddddkekek, PS)”, 17%. ATACATACCACTCTTC (sugars k3 d10 k3, PS): the target mRNA inhibition (1 µM) was found to be 18%. The same measure, in the same setting: the result for “GGAAUGCTACTTGAAC (sugars k3 d1 m1 d8 k3, PS)” reads 62%; that for TTTAGTTGGTAGCTTG (sugars k3 d10 k3, PS), 63%; that for ATATATACCTGTTGCC (sugars k3 d10 k3, PS), 28%. In turn, CACAAGTAAGGTAAAG (sugars k3 d10 k3, PS) showed a target mRNA inhibition (1 µM) of 54%.

In turn, “ATAGAGTTGCACCGTT (sugars kkdddddddddkekek, PS)” returned a target mRNA inhibition (1 µM) of 45%. “CTTAAACCTTCCCTGT (sugars k3 d1 m1 d8 k3, PS)” came in with a target mRNA inhibition (1 µM) of 24%. On the same count and under the same terms, the result for “ACTACAAGAGGTTATT (sugars k3 d1 m1 d8 k3, PS)” reads 29%.

ACTTCATAGTGGACTT (sugars k3 d10 k3, PS) had a target mRNA inhibition (1 µM) of 61%.

Where the note is “1 µM”, CAATATGGGATGAGGT (sugars k3 d10 k3, PS) displayed a target mRNA inhibition of 62%. Still for that read-out and setting: with ATGCCAAGCTTTGTGT (sugars k3 d10 k3, PS) the figure was 50%.

For GAACATACATTGTTGC (sugars k3 d10 k3, PS), under “1 µM”, the target mRNA inhibition amounted to 58%. In the case of “AGTGCCAAACCAATGT (sugars kkdddddddddkekek, PS)”, the target mRNA inhibition reads like this: (0.02 µM) 13%; (0.078 µM) 2%; (0.313 µM) 40%; (1 µM) 71%; (1.25 µM) 61%; (5 µM) 83%. The sequence AGGCTAGGGAAATCTT (sugars k3 d10 k3, PS) returned a target mRNA inhibition (1 µM) of 62%. Turning to GTTGATATTCTGTGGC (sugars k3 d10 k3, PS), the target mRNA inhibition (0.02 µM) was 23%; the target mRNA inhibition (0.078 µM) was 42%; the target mRNA inhibition (0.313 µM) stood at 53%; the target mRNA inhibition (1 µM) was 80%; the target mRNA inhibition (1.25 µM) amounted to 87%; the target mRNA inhibition (5 µM) is 93%. Regarding GATCATTGCAGAAAGA (sugars k3 d10 k3, PS), the target mRNA inhibition (1 µM) is 23%. For the setting “1 µM”, ATTCTGTGGCATGGCT (sugars k3 d10 k3, PS) returned a target mRNA inhibition of 69%. On the same count and under the same terms, with CCTAGTTACAAACCAC (sugars k3 d10 k3, PS) the figure was 51%; with “ACCAAACTTCCAGCAG (sugars kkdddddddddkekek, PS)”, 32%. Same read-out and setting: the result for CTACATGGATCCAACA (sugars k3 d10 k3, PS) reads 5%; that for TTTATAACTACAAGAG (sugars k3 d10 k3, PS), 38%.

GGAAATTGTTGCTGTT (sugars k3 d10 k3, PS) gave a target mRNA inhibition (1 µM) of 46%. On the same count and under the same terms, the result for “CCATCTATCAGACTTC (sugars k3 d1 m1 d8 k3, PS)” reads 56%.
